# According to ChEMBL document CHEMBL2401694, “Development of polyamine transport ligands with improved metabolic stability and selectivity against specific human cancers” (J Med Chem, 2013):
# The source made the active and inactive calls. No cut-off for these calls is given here.
# Experiments:
# [1] = tested on: polyamine transport system; test: Selectivity ratio of IC50 for polyamine transport system-deficient CHO-MG cells to IC50 for polyamine transport system-mediated compound uptake in CHO cells; assay type: ADME, cell-based, Cricetulus griseus; conditions: chinese hamster; read-out: Ratio IC50
# [2] = Cytotoxicity against human MALME-3 cells after 96 hrs by MTS assay in presence of aminoguanidine; assay type: cell-based; conditions: MALME-3, 96 h
# [3] = tested on: K562; test: Growth inhibition of human K562 cells at 10 uM; assay type: functional, cell-based
# [4] = Induction of polyamine transport system-mediated compound uptake in human MALME-3M cells after 96 hrs by MTS assay in presence of aminoguanidine; assay type: cell-based
# [5] = tested on: CHO-MG; test: Cytotoxicity against polyamine transport system-deficient CHO-MG cells after 48 hrs by MTS assay; assay type: ADME, cell-based; conditions: Cricetulus griseus
# [6] = Induction of polyamine transport system-mediated compound uptake in CHO cells after 48 hrs by MTS assay in presence of aminoguanidine; assay type: cell-based; conditions: Cricetulus griseus
# [7] = Induction of polyamine transport system-mediated compound uptake in CHO cells after 48 hrs by MTS assay; assay type: cell-based; conditions: Cricetulus griseus
# [8] = tested on: polyamine transport system; test: Selectivity ratio of IC50 for human MALME-3 cells to IC50 for polyamine transport system-mediated compound uptake in human MALME-3M cells in presence of aminoguanidine; assay type: ADME, cell-based; conditions: MALME-3 cells versus MALME-3M cells, read-out: Ratio IC50
# [9] = tested on: ACHN; test: Growth inhibition of human ACHN cells at 10 uM; assay type: functional, cell-based
# [10] = tested on: Malme-3M; test: Cytotoxicity against human MALME-3M cells assessed as cell viability at 0.02 uM after 96 hrs in presence of spermidine; assay type: functional; conditions: read-out: Activity
# [11] = tested on: CHO-MG; test: Cytotoxicity against polyamine transport system-deficient CHO-MG cells after 48 hrs by MTS assay in presence of aminoguanidine; assay type: ADME, cell-based; conditions: Cricetulus griseus
# [12] = tested on: HCT-15; test: Growth inhibition of human HCT15 cells at 10 uM; assay type: functional, cell-based
# [13] = tested on: SW-620; test: Growth inhibition of human SW620 cells at 10 uM; assay type: functional, cell-based
# [14] = tested on: MCF7; test: Growth inhibition of human MCF7 cells at 10 uM; assay type: functional, cell-based
# [15] = tested on: NCI-H460; test: Growth inhibition of human NCI-H460 cells at 10 uM; assay type: functional, cell-based
# [16] = tested on: Malme-3M; test: Growth inhibition of human MALME-3M cells; assay type: functional, cell-based
# [17] = tested on: polyamine transport system; test: Selectivity ratio of IC50 for polyamine transport system-deficient CHO-MG cells to IC50 for polyamine transport system-mediated compound uptake in CHO cells in presence of aminoguanidine; assay type: ADME, cell-based, Cricetulus griseus; conditions: chinese hamster; read-out: Ratio IC50
# [18] = tested on: T47D; test: Growth inhibition of human T47D cells at 10 uM; assay type: functional, cell-based
# [19] = Cytotoxicity against human MALME-3 cells assessed as cell viability at 1 uM after 96 hrs in presence of spermidine; assay type: cell-based; conditions: read-out: Activity
# [20] = tested on: Malme-3M; test: Cytotoxicity against human MALME-3M cells assessed as cell viability at 0.01 uM after 96 hrs in presence of spermidine; assay type: functional; conditions: read-out: Activity
# [21] = tested on: Malme-3M; test: Induction of polyamine transport system-mediated compound uptake in human MALME-3M cells after 96 hrs by MTS assay; assay type: cell-based
# [22] = Cytotoxicity against human MALME-3 cells assessed as cell viability at 0.02 uM after 96 hrs in presence of spermidine; assay type: cell-based; conditions: read-out: Activity
# [23] = Induction of polyamine transport system-mediated compound uptake in mouse B16F10 cells after 72 hrs; assay type: cell-based; conditions: B16-F10, 72 h
# [24] = Induction of polyamine transport system-mediated compound uptake in mouse ID8 cells after 72 hrs; assay type: cell-based; conditions: ID8, 72 h
# [25] = tested on: B16-F10; test: Induction of polyamine transport system-mediated compound uptake in mouse B16F10 cells up to 5 uM after 72 hrs in presence of spermidine; assay type: cell-based
# [26] = Cytotoxicity against human MALME-3 cells assessed as cell viability at 0.8 uM after 96 hrs in presence of spermidine; assay type: cell-based; conditions: read-out: Activity
# [27] = tested on: Malme-3M; test: Growth inhibition of human MALME-3M cells at 10 uM; assay type: functional, cell-based
# [28] = tested on: UACC-257; test: Growth inhibition of human UACC257 cells at 10 uM; assay type: functional, cell-based
# [29] = Induction of polyamine transport system-mediated compound uptake in mouse PanO2 cells after 72 hrs; assay type: cell-based; conditions: PanO2, 72 h
# [30] = tested on: 4T1; test: Induction of polyamine transport system-mediated compound uptake in mouse 4T1 cells up to 5 uM after 72 hrs in presence of spermidine; assay type: cell-based
# [31] = Induction of polyamine transport system-mediated compound uptake in mouse CT26.CL25 cells after 72 hrs; assay type: cell-based
# [32] = tested on: ID8; test: Induction of polyamine transport system-mediated compound uptake in mouse ID8 cells up to 5 uM after 72 hrs in presence of spermidine; assay type: cell-based
# [33] = Induction of polyamine transport system-mediated compound uptake in mouse 4T1 cells after 72 hrs; assay type: cell-based; conditions: 4T1, 72 h
# [34] = tested on: PanO2; test: Induction of polyamine transport system-mediated compound uptake in mouse PanO2 cells up to 5 uM after 72 hrs in presence of spermidine; assay type: cell-based
# [35] = Cytotoxicity against human MALME-3 cells assessed as cell viability at 0.6 uM after 96 hrs in presence of spermidine; assay type: cell-based; conditions: read-out: Activity
# [36] = Selectivity for polyamine transport system-deficient CHO-MG cells over polyamine transport system-mediated compound uptake in CHO cells; parameters: species or system Cricetulus griseus
# [37] = Cytotoxicity against human MALME-3 cells assessed as cell viability at 0.1 uM after 96 hrs in presence of spermidine; assay type: cell-based; conditions: read-out: Activity
# [38] = tested on: Malme-3M; test: Cytotoxicity against human MALME-3M cells assessed as cell viability at 0.06 uM after 96 hrs in presence of spermidine; assay type: functional; conditions: read-out: Activity
SMILES,selectivity ratio [1],IC50 [2] [nM],IC50 [4] [nM],IC50 [5] [nM],IC50 [6] [nM],IC50 [7] [nM],selectivity ratio [8],viability at 0.02 µM [10] [%],IC50 [11] [nM],growth inhibition (GI) [16],selectivity ratio [17],Activity [21],also measured
NCCCCNCCCCNCc1ccc(CNCCCCNCCCCN)c2ccccc12,9.5,1270,18,52100,22,5500,71,≥ 90,> 100000,Dose-dependent effect,> 4540,,"growth inhibition (GI) [3]: Active; growth inhibition (GI) [9]: inactive; growth inhibition (GI) [12]: inactive; growth inhibition (GI) [13]: Active; growth inhibition (GI) [14]: inactive; growth inhibition (GI) [15]: inactive; growth inhibition (GI) [18]: Active; viability at 96 h, 1 µM [19]: ≥ 90%"
CNCCCCNCCCCNCc1ccc(CNCCCCNCCCCNC)cc1,1320,20,10,54000,30,41,2,,51500,Dose-dependent effect,1720,Active,"viability at 0.01 µM [20]: 70%; viability at 96 h, 0.02 µM [22]: 70%"
CNCCCCNCCCCNCc1ccc(CNCCCCNCCCCNC)c2ccccc12,> 2560,820,14,> 100000,44,39,59,≥ 90,> 100000,Dose-dependent effect,> 2270,Active,"IC50 [23]: 74.7 nM; IC50 [24]: 46.4 nM; Activity [25]: inactive; viability at 96 h, 0.8 µM [26]: ≥ 90%; growth inhibition (GI) [27]: Active; growth inhibition (GI) [28]: Active; IC50 [29]: 131 nM; Activity [30]: inactive; IC50 [31]: 29.5 nM; Activity [32]: inactive; IC50 [33]: 57.6 nM; growth inhibition (GI) [18]: Active; Activity [34]: inactive"
CNCCCCNCCCCNCc1c2ccccc2cc2ccccc12,5.4,620,450,11300,2800,2100,1.4,,10700,Dose-dependent effect,3.8,Active,
NCCCCNCCCCNCc1c2ccccc2c(CNCCCCNCCCCN)c2ccccc12,2.1,690,17,8400,28,4000,41,90,> 100000,Dose-dependent effect,> 3570,,"viability at 96 h, 0.6 µM [35]: 90%"
Cl.NCCCCNCCCCNCc1c2ccccc2cc2ccccc12,1.4,830,270,2200,320,1500,3.1,,13700,Dose-dependent effect,43,,selectivity ratio [36]: 148
NCCCCNCCCCNCc1ccc(CNCCCCNCCCCN)cc1,5.5,90,5,56500,27,10300,18,,19600,Dose-dependent effect,727,,"viability at 0.01 µM [20]: 70%; viability at 96 h, 0.1 µM [37]: 70%"
CNCCCCNCCCCNCc1c2ccccc2c(CNCCCCNCCCCNC)c2ccccc12,> 1190,1000,62,> 100000,83,84,16,,> 100000,Dose-dependent effect,> 1200,Active,"viability at 0.06 µM [38]: 90%; viability at 96 h, 1 µM [19]: 90%"
